{"source": "patent US6399099B1", "about": "“Effervescent composition with dry extract of ginkgo biloba” (Dr. Willmar Schwabe GmbH & Co., priority 1995, dated 2002)", "origin": "cited, not measured here", "conditions": "neutral or slightly basic aqueous medium", "data": [{"smiles": "CC(C)(C)[C@]1(O)CC2OC(=O)CC23C(=O)OC2OC(=O)[C@H](O)C231", "note": "(stereo partly shown) [bilobalide]", "values": [{"measurement": "stability in aqueous medium", "result": "not stable"}]}]}
